Source: patent US20130109734A1 (Metabolex, Inc., priority 2010, published 2013)

The molecules below were run against T1, human GPR120 (Homo sapiens, UniProt Q5NUL3) (assay: Intracellular Ca2+ assay in human GPR120 stable cell line (HEK293 co-expressing Gqi5), Flexstation). Conditions: % activity at 5 μM compared to the maximal activity of GW9508 at 6.7 μM (=100%); human GPR120 cells, Ca2+ fluorescence.
T1 construct: host or cells: HEK293 cells co-expressing Gqi5
T1 sequence (Q5NUL3 1-361): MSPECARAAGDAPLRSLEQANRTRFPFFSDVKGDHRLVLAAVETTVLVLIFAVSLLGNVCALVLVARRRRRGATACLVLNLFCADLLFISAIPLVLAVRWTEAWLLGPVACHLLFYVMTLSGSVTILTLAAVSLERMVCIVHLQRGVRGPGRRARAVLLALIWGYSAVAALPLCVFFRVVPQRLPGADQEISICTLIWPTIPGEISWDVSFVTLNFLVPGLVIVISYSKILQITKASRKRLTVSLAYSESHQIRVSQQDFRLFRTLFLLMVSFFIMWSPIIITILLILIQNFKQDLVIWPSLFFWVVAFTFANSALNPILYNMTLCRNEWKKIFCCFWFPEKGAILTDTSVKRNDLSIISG
Type: cell-based
Procedure: Human GPR120 stable cell line was purchased from Multispan Inc (26219 Eden Landing Road, Hayward, Calif. 94545). This GPR120 cell line was generated in HEK293 cells co-expressing Gqi5. In this cell line, the Flag epitope tag (DYKDDDDK) was fused to the amino terminus of human GPR120 protein.
The concentration of intracellular Ca^2+ was measured as described below. Human GPR120 cells were plated in 96 well plates (Poly-D-Lysine coated black/clear Plate, Greiner Bio-One) at 70,000 cells per well and cultured overnight in conditions of 37° C. and 5% CO2. A Ca^2+assay dye stock solution was prepared by adding 10 mL of assay buffer (HBSS/20 mM HEPES, pH 7.4) to FLIPR Calcium 4 Assay Bulk Kit (Molecular Devices). The 10 mL of Ca^2+ assay dye solution was prepared by further diluting 0.5 mL of Ca^2+ assay dye stock solution with 10 mL of assay buffer. The medium of the cells was removed and immediately 100 μL of the Ca^2+ assay dye solution was dispensed into each well followed by incubation at 37° C. and 5% CO2 for 50 minutes to incorporate the Ca^2+ dye into the cells. The cell plate was then placed in the Flexstation (Molecular Devices) for 20 minutes at 37° C. Compounds were dissolved in 100% DMSO and diluted to desired concentrations with assay buffer and placed in the Flexstation simultaneously with the cell plate for 20 minute incubation at 37° C. prior to reading. Fluorescence intensity was measured immediately following compound addition (25 μL/well) on the Flexstation at an excitation wavelength of 485 nm and an emission wavelength of 525 with 515 nm auto cutoff. The resulting increase in fluorescence intensities corresponds to increases in intracellular Ca^2+ levels.
Compounds were dissolved in 100% DMSO to a concentration of 20 mM to provide stock solutions. To determine activity against human GPR120, compounds were added with human GPR120 stably expressing cells (described above), at eight desired concentrations ranging from 0.00001 to 20 μM, in 96 well plates and fluorescence intensities were measured for 90 seconds with 2-second intervals. An EC50 value (concentration of the GPR120 agonist where 50% of the agonist's maximal activity is observed) was calculated using the changes (Max−Min) of fluorescence intensity.
To determine percent activity for a tested compound, the fluorescence intensity value obtained at a particular concentration were compared to the maximal fluorescence intensity value obtained for reference compound GW9508 (4-[[(3-phenoxyphenyl)methyl]amino]benzene propanoic acid; British Journal of Pharmacology 2006 148, 619-628) or the compound of Example 25. When GW9508 was used as the reference compound, the maximal activity of GW9508 at 6.7 μM was designated as 100% activity. When the compound of Example 25 was used as the reference compound, the maximal activity of the compound of Example 25 at 2.5 μM was designated as 100% activity. Typically, the GW9508 activity reached a maximum at a concentration of approximately 6.7 μM and typically the compound of Example 25 reached a maximum activity at approximately 2.5 μM.
CC(Cc1ccc(NCc2cc(F)cc3c2OC(C)(C)C3)cc1)C(=O)O (stereo not drawn) [Example 67, 3-(4-(((5-fluoro-2,2-dimethyl-2,3-dihydrobenzofuran-7-yl)methyl)amino)phenyl)-2-methylpropanoic acid] was tested, and the “% Activity (GW9508 Reference Compound)” value was 141.82%. CC1(C)Cc2cc(F)cc(COc3ccc4cc(C(=O)O)ccc4c3)c2O1 [Example 114, 6-((5-fluoro-2,2-dimethyl-2,3-dihydrobenzofuran-7-yl)methoxy)-2-naphthoic acid] was tested, and the “% Activity (GW9508 Reference Compound)” value was 123.58%. With CC1(C)Cc2cc(Cl)cc(COc3ccc(CCC(=O)O)c(-c4ccccc4)c3)c2O1 [Example 71, 3-(5-((5-chloro-2,2-dimethyl-2,3-dihydrobenzofuran-7-yl)methoxy)-[1,1′-biphenyl]-2-yl)propanoic acid] the “% Activity (GW9508 Reference Compound)” value was 133.8%. For CCc1c(CCC(=O)O)ccc(OCc2cc(F)cc3c2OC(C)(C)C3)c1F [Example 216, 3-(2-ethyl-3-fluoro-4-((5-fluoro-2,2-dimethyl-2,3-dihydrobenzofuran-7-yl)methoxy)phenyl)propanoic acid], the “% Activity (GW9508 Reference Compound)” value was 144.23%. For CC1(C)Cc2cc(F)cc(COc3ccc(CCC(=O)O)c(OC(F)(F)F)c3)c2O1 [Example 136, 3-(4-((5-fluoro-2,2-dimethyl-2,3-dihydrobenzofuran-7-yl)methoxy)-2-(trifluoromethoxy)phenyl)propanoic acid], the “% Activity (GW9508 Reference Compound)” value was 140.51%. In the case of CC(C)C(CC(=O)O)c1ccc(OCc2cc(Cl)cc3c2OC(C)(C)C3)cc1 (stereo not drawn) [Example 266, 3-(4-((5-chloro-2,2-dimethyl-2,3-dihydrobenzofuran-7-yl)methoxy)phenyl)-4-methylpentanoic acid], the “% Activity (GW9508 Reference Compound)” value is reported as 42.73%. With CC(Cc1ccc(OCc2cc(Cl)cc3c2OC(C)(C)C3)c(C(F)(F)F)c1)C(=O)O (stereo not drawn) [Example 9, 3-(4-((5-chloro-2,2-dimethyl-2,3-dihydrobenzofuran-7-yl)methoxy)-3-(trifluoromethyl)phenyl)-2-methylpropanoic acid] the “% Activity (GW9508 Reference Compound)” value was 112.8%. With COc1cc(CCC(=O)O)c(Br)cc1OCc1cc(F)cc2c1OC(C)(C)C2 [Example 56, 3-(2-bromo-4-((5-fluoro-2,2-dimethyl-2,3-dihydrobenzofuran-7-yl)methoxy)-5-methoxyphenyl)propanoic acid] the “% Activity (GW9508 Reference Compound)” value was 108.51%. CC(Cc1ccc(OCc2cc(Cl)cc3c2OC(C)(C)C3=O)c(C(F)(F)F)c1)C(=O)O (stereo not drawn) [Example 79, 3-(4-((5-chloro-2,2-dimethyl-3-oxo-2,3-dihydrobenzofuran-7-yl)methoxy)-3-(trifluoromethyl)phenyl)-2-methylpropanoic acid] was tested, and the “% Activity (GW9508 Reference Compound)” value was 3.85%. CC1(C)Cc2cc(Cl)cc(CNc3ccc(CCC(=O)O)cc3)c2O1 [Example 127, 3-(4-(((5-chloro-2,2-dimethyl-2,3-dihydrobenzofuran-7-yl)methyl)amino)phenyl)propanoic acid] was tested, and the “% Activity (GW9508 Reference Compound)” value was 152.93%. In the case of CC(C)Oc1cc(OCc2cc(F)cc3c2OC(C)(C)C3)ccc1CCC(=O)O [Example 115, 3-(4-((5-fluoro-2,2-dimethyl-2,3-dihydrobenzofuran-7-yl)methoxy)-2-isopropoxyphenyl)propanoic acid], the “% Activity (GW9508 Reference Compound)” value is reported as 151.78%. In the case of C[C@H](Cc1ccc(OCc2cc(Cl)cc3c2OC(C)(C)C3)c(F)c1)C(=O)O [Example 141, (R)-3-(4-((5-chloro-2,2-dimethyl-2,3-dihydrobenzofuran-7-yl)methoxy)-3-fluorophenyl)-2-methylpropanoic acid], the “% Activity (GW9508 Reference Compound)” value is reported as 143.3%. For CC1(C)Cc2cc(Cl)cc(COc3ccc4c(c3)CC[C@@H]4CC(=O)O)c2O1 [Example 179, (R)-2-(5-((5-chloro-2,2-dimethyl-2,3-dihydrobenzofuran-7-yl)methoxy)-2,3-dihydro-1H-inden-1-yl)acetic acid], the “% Activity (GW9508 Reference Compound)” value was 105.44%. COc1cccc(-c2cc(COc3ccc(CC(C)C(=O)O)cc3)c3c(c2)CC(C)(C)O3)c1 (stereo not drawn) [Example 86, 3-(4-((5-(3-methoxyphenyl)-2,2-dimethyl-2,3-dihydrobenzofuran-7-yl)methoxy)phenyl)-2-methylpropanoic acid] was tested, and the “% Activity (GW9508 Reference Compound)” value was 5.23%. In the case of O=C(O)C1CC1c1ccc(OCc2cc(F)cc3c2OC2(CCCC2)C3)cc1 (stereo not drawn) [Example 165, 2-(4-((5-fluoro-3H-spiro[benzofuran-2,1′-cyclopentane]-7-yl)methoxy)phenyl)cyclopropanecarboxylic acid], the “% Activity (GW9508 Reference Compound)” value is reported as 158.08%. With CC(Cc1ccc(OCc2ccc(C(F)(F)F)c3c2OC(C)(C)C3)c(F)c1)C(=O)O (stereo not drawn) [Example 33, 3-(4-((2,2-dimethyl-4-(trifluoromethyl)-2,3-dihydrobenzofuran-7-yl)methoxy)-3-fluorophenyl)-2-methylpropanoic acid] the “% Activity (GW9508 Reference Compound)” value was 142.9517%. In the case of COc1cc(CCC(=O)O)ccc1OCc1cc(F)cc2c1OC(C)(C)C2 [Example 173, 3-(4-((5-fluoro-2,2-dimethyl-2,3-dihydrobenzofuran-7-yl)methoxy)-3-methoxyphenyl)propanoic acid], the “% Activity (GW9508 Reference Compound)” value is reported as 159.06%. CC(Cc1ccc(COc2cccc3c2OC(C)(C)C3)c(F)c1)C(=O)O (stereo not drawn) [Example 44, 3-(4-(((2,2-dimethyl-2,3-dihydrobenzofuran-7-yl)oxy)methyl)-3-fluorophenyl)-2-methylpropanoic acid] was tested, and the “% Activity (GW9508 Reference Compound)” value was 157.14%. CC(Cc1ccc(OCc2cc(-n3cnnn3)cc3c2OC(C)(C)C3)cc1)C(=O)O (stereo not drawn) [Example 90, 3-(4-((2,2-dimethyl-5-(1H-tetrazol-1-yl)-2,3-dihydrobenzofuran-7-yl)methoxy)phenyl)-2-methylpropanoic acid] was tested, and the “% Activity (GW9508 Reference Compound)” value was 75.86%. For CC1(C)Cc2cc(Cl)cc(COc3ccc4c(c3)CC[C@H]4CC(=O)O)c2O1 [Example 176, (S)-2-(5-((5-chloro-2,2-dimethyl-2,3-dihydrobenzofuran-7-yl)methoxy)-2,3-dihydro-1H-inden-1-yl)acetic acid], the “% Activity (GW9508 Reference Compound)” value was 138.42%. CC(Cc1ccc(OCc2cc(Cl)cc3c2OCC3(C)C)cc1)C(=O)O (stereo not drawn) [Example 148, 3-(4-((5-chloro-3,3-dimethyl-2,3-dihydrobenzofuran-7-yl)methoxy)phenyl)-2-methylpropanoic acid] was tested, and the “% Activity (GW9508 Reference Compound)” value was 113.89%. With Cc1cc(OCC(=O)O)ccc1OCc1cc(Cl)cc2c1OC(C)(C)C2 [Example 103, 2-(4-((5-chloro-2,2-dimethyl-2,3-dihydrobenzofuran-7-yl)methoxy)-3-methylphenoxy)acetic acid] the “% Activity (GW9508 Reference Compound)” value was 98.96%. CC1(C)Cc2cc(F)cc(COc3c(F)cc(CC4CC4C(=O)O)cc3F)c2O1 (racemic) [Example 184, 2-(3,5-difluoro-4-((5-fluoro-2,2-dimethyl-2,3-dihydrobenzofuran-7-yl)methoxy)benzyl)cyclopropanecarboxylic acid] was tested, and the “% Activity (GW9508 Reference Compound)” value was 97.04%. CC(C)Oc1ccc(Cl)cc1COc1cc2c(cc1F)C(CC(=O)O)CC2 (stereo not drawn) [Example 257, 2-(5-((5-chloro-2-isopropoxybenzyl)oxy)-6-fluoro-2,3-dihydro-1H-inden-1-yl)acetic acid] was tested, and the “% Activity (GW9508 Reference Compound)” value was 124.62%.
